Results: ChEMBL document CHEMBL5550160, “Leveraging a rationally designed veliparib-based anilide eliciting anti-leukemic effects for the design of pH-responsive polymer nanoformulation” (Eur J Med Chem, 2024)
Activity calls are given as the source filed them. No cut-off for these calls is given here.

Columns and labels:
[1] = target: T1, Histone deacetylase 7 (Homo sapiens) (UniProt Q8WUI4); assay: Inhibition of HDAC7 (unknown origin) assessed as residual activity at 4.12 x 10^-8M (reference value: 102.66%); settings: dose 4.12 10^-8M
T1 sequence (whole entry): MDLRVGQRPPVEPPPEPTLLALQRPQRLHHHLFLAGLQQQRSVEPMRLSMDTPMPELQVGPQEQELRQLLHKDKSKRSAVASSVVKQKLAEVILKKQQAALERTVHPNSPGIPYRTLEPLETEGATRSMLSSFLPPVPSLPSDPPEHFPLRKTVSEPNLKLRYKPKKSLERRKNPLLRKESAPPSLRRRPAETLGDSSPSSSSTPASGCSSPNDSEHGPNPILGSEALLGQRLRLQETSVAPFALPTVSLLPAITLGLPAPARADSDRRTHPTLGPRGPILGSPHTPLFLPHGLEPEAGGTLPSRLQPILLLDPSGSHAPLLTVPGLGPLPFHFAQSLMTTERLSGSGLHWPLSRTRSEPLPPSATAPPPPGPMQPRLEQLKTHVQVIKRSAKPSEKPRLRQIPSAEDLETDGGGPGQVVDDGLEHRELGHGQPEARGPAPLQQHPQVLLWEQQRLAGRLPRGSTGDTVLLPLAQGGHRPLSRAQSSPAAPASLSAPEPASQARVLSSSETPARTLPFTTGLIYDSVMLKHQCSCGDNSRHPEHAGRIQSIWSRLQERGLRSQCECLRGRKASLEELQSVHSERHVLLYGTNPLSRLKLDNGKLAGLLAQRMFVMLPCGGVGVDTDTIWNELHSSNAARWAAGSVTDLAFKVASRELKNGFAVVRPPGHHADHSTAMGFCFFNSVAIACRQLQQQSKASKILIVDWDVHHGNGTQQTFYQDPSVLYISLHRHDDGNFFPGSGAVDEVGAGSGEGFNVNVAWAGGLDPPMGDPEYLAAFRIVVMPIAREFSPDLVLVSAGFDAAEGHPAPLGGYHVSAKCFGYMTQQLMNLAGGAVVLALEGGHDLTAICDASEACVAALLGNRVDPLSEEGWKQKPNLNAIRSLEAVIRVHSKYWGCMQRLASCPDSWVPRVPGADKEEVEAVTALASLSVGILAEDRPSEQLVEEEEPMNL

[2] = target: Histone deacetylase 1 (Homo sapiens, UniProt Q13547); assay: Inhibition of HDAC1 (unknown origin) using p53 residues 379 to 382 [RHKK(Ac)] as fluorogenic substrate assessed as residual activity at 1.11 x 10^-6M (reference value: 98.06%); settings: dose 1.11 10^-6M
Chain of Histone deacetylase 1 (Q13547 whole entry, the tested form may be a part): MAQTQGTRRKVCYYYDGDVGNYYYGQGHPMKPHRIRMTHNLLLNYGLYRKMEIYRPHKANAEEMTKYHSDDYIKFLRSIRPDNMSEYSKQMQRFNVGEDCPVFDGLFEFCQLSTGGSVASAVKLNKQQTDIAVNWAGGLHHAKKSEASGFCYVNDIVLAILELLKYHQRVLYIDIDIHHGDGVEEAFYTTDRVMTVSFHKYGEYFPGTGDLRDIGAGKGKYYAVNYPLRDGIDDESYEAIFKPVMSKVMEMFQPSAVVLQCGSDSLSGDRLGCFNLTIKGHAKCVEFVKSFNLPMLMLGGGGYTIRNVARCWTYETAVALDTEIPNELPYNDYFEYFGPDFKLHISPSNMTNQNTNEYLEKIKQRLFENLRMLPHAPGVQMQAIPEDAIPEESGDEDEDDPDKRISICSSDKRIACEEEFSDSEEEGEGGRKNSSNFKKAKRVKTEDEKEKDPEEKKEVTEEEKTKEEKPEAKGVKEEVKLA

[3] = target: Histone deacetylase 9 (Homo sapiens) (UniProt Q9UKV0); assay: Inhibition of HDAC9 (unknown origin) assessed as residual activity at 5.08 x 10^-10M (reference value: 97.55%); settings: dose 5.08 10^-10M
Chain of Histone deacetylase 9 (Homo sapiens) (Q9UKV0 whole entry): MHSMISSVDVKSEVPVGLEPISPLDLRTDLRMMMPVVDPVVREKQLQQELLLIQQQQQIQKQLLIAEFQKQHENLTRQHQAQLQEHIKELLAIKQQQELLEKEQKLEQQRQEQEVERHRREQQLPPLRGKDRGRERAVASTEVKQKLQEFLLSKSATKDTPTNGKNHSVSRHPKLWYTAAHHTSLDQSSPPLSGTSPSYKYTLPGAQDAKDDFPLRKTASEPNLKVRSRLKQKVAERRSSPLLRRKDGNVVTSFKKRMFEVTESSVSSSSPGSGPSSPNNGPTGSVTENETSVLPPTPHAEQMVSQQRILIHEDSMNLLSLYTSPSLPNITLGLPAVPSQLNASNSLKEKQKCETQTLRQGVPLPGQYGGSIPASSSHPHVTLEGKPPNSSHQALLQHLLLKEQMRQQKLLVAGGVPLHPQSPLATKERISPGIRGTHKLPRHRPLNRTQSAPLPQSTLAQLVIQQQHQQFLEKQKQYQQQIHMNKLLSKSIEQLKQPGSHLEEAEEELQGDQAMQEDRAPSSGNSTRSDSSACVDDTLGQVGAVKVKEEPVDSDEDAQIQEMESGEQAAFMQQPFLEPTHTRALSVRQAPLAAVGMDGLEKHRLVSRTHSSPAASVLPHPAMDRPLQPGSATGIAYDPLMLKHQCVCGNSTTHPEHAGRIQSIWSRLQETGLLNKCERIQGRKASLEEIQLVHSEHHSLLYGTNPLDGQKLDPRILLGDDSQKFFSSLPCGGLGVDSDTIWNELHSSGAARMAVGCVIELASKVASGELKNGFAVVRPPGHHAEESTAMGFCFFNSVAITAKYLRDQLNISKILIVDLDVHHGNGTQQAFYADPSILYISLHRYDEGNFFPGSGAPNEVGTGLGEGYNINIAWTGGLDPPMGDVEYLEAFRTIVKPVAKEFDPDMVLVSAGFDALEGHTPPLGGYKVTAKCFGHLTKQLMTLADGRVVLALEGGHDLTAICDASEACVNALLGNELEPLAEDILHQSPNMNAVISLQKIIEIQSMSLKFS

[4] = test system: HL-60; assay: Induction of apoptosis in human HL-60 cells assessed as disintegration of mitochondrial nuclear condensation at 0.5 to 1 times IC50 by DAPI staining based microscopic analysis; assay type: functional, cell-based
[5] = target: Histone deacetylase 9 (Homo sapiens) (UniProt Q9UKV0); assay: Inhibition of HDAC9 (unknown origin) assessed as residual activity at 1.52 x 10^-9M (reference value: 97.55%); settings: dose 1.52 10^-9M
[6] = target: T2, Polyamine deacetylase HDAC10 (Homo sapiens) (UniProt Q969S8); assay: Inhibition of HDAC10 (unknown origin) assessed as residual activity at 4.57 x 10^-9M (reference value: 101.54%); settings: dose 4.57 10^-9M
T2 sequence (whole entry): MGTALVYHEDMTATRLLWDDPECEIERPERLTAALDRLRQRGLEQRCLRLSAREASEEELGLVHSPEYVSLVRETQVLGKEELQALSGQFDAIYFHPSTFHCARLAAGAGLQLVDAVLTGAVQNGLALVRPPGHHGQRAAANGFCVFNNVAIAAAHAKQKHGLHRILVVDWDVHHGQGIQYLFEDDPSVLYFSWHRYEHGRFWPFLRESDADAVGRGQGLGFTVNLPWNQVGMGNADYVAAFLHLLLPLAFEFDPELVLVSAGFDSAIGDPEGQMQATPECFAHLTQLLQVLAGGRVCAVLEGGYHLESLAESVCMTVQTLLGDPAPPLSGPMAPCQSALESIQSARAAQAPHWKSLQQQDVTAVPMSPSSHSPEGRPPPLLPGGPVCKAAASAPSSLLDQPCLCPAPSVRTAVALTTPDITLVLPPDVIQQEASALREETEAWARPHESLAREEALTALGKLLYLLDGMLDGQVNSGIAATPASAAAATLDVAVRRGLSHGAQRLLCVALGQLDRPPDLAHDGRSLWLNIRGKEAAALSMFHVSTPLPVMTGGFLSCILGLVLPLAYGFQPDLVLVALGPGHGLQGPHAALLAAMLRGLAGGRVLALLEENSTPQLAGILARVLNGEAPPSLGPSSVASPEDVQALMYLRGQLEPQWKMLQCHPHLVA

[7] = target: T1, Histone deacetylase 7 (Homo sapiens); assay: Inhibition of HDAC7 (unknown origin) assessed as residual activity at 1.37 x 10^-8M (reference value: 102.66%); settings: dose 1.37 10^-8M
[8] = target: Histone deacetylase 5 (Homo sapiens) (UniProt Q9UQL6); assay: Inhibition of HDAC5 (unknown origin) assessed as residual activity at 1.52 x 10^-9M (reference value: 100%); settings: dose 1.52 10^-9M
Chain of Histone deacetylase 5 (Homo sapiens) (Q9UQL6 whole entry): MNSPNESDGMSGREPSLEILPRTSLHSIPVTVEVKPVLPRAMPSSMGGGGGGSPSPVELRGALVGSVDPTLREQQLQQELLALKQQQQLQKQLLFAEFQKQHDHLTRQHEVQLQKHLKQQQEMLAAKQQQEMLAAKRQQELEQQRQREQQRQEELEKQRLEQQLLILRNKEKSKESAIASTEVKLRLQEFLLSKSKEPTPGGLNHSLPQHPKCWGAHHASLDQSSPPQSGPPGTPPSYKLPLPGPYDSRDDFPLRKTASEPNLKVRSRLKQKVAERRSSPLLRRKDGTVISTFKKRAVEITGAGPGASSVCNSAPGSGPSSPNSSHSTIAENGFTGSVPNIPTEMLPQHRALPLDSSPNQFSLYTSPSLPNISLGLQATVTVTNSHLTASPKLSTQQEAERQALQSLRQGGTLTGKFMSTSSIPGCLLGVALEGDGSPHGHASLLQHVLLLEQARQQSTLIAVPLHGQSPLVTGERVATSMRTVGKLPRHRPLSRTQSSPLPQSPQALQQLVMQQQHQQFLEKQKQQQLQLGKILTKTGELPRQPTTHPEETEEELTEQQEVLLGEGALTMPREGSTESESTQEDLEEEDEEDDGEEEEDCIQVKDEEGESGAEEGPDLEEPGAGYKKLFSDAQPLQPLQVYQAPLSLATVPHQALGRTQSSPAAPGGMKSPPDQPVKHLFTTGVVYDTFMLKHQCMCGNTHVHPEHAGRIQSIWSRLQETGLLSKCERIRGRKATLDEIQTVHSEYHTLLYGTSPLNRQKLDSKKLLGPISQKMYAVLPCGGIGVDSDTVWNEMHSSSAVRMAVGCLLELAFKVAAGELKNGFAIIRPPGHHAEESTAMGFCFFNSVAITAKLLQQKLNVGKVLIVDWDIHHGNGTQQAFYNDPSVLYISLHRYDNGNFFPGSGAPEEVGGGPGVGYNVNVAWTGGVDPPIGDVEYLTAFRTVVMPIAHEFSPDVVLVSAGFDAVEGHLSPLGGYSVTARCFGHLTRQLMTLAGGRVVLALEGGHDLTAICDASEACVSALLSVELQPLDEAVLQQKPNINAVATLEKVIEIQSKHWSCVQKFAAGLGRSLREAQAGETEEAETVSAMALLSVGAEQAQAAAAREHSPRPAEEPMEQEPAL

[9] = target: T3, Histone deacetylase 8 (Homo sapiens) (UniProt Q9BY41); assay: Inhibition of HDAC8 (unknown origin) assessed as residual activity at 5.08 x 10^-10M (reference value: 100%); settings: dose 5.08 10^-10M
T3 sequence (whole entry): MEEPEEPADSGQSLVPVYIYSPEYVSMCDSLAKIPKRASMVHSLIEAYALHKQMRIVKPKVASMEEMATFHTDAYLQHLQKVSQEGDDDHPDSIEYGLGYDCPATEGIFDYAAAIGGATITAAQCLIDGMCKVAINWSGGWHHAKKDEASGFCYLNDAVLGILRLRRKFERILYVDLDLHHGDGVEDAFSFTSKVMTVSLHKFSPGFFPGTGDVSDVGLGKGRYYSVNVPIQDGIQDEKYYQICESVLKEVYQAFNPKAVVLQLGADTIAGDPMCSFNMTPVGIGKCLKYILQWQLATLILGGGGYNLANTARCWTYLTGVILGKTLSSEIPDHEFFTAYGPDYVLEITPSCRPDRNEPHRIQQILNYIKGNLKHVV

[10] = test system: HL-60; assay: Downregulation of PARP-1 protein expression in human HL-60 cells by Western blot analysis; assay type: functional, cell-based
[11] = target: Histone deacetylase 2 (Homo sapiens, UniProt Q92769); assay: Inhibition of HDAC2 (unknown origin) assessed as residual activity at 3.33 x 10^-6M (reference value: 99.81%); settings: dose 3.33 10^-6M
Chain of Histone deacetylase 2 (Q92769 whole entry): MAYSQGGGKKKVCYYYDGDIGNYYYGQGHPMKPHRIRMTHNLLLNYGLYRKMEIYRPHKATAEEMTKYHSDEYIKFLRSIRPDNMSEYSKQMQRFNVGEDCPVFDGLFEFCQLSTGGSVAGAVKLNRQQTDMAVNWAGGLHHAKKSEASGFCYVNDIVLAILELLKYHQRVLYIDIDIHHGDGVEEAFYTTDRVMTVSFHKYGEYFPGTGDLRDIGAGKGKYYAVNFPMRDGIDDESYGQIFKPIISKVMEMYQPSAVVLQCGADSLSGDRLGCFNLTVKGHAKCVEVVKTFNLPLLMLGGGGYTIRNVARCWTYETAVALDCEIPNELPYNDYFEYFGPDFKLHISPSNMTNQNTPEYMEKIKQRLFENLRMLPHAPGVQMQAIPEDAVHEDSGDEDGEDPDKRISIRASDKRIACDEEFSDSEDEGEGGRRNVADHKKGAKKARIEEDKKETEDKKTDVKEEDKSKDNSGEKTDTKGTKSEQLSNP

[12] = target: T2, Polyamine deacetylase HDAC10 (Homo sapiens); assay: Inhibition of HDAC10 (unknown origin) assessed as residual activity at 1.23 x 10^-7M (reference value: 101.54%); settings: dose 1.23 10^-7M

Activity [1]: 87%
Activity [2]: 11%
Activity [3]: 93.7%
Activity [5]: 97.8%
Activity [6]: 98.8%
Activity [7]: 103%
Activity [8]: 80.1%
Activity [9]: 105%
Activity [11]: 5.75%
Activity [12]: 101%
Structure (SMILES): NC(=O)c1cccc2[nH]c(-c3ccc(NCc4ccc(C(=O)Nc5ccccc5N)cc4)cc3)nc12
Activity [4]: inactive
Activity [10]: Active
